Series [1] is described as follows: Trilinolenine assay of antioxidant properties (TBA-reactive material). The class given is biochemical. The settings on record: 5×10^-5 M, 3 h at 37° C., versus vehicle-treated control; 50 µM. On the procedure:
(§1) The antioxidant properties of the compounds according to the invention were studied in in-vitro tests. In these tests the substance was incubated with the substrate to be oxidized (synthetic triglyceride with unsaturated fatty acids, i.e., trilinolenine or human LDL). After the incubation period, the degree of oxidation was determined using the so called thiobarbituric acid (TBA) assay. TBA reacts with malondialdehyde (MDA), which is one of the essential oxidation products. The reaction product was assayed photometrically.
400 μl of trilinolenine was incubated for 3 h at 37° C. with 2 ml HAM F 10 medium with vehicle (namely, ethanol, 0.5% final concentration) or test substance (concentration: 5×10^-5 M) (oxidation is effected without special catalysts).
The total TBA-reactive material was determined in 1 ml of the incubate by adding 1.5 ml of 0.67% TBA solution to 0.05 N NAOH and 1.5 ml to a 20% trichloroacetic acid solution. The mixture was reacted for 60 min. on a boiling water bath. After cooling, absorption was determined at 532 nm.
(§2) Three preparations were tested per test compound.
(§3) Tables 3a (trilinolenine assay) and 3b (LDL assay) represent the mean changes in percent as compared to solvent control.
(§4) Table 3: mean change (Δ mean reduction) in percent of the concentration of TBA-reactive material after 3-h (a: trilinolenine assay) and 24-h (b: LDL assay) incubation versus vehicle-treated control preparation.

The subject of series [2] is Smooth muscle cells from the aorta of balloon-catheterized rats. Put plainly: Antiproliferative effect on smooth muscle cells in vitro. The class given is cell-based. The settings on record: Rattus norvegicus, 72 h; 5×10^-5 M, 3 days, versus vehicle-treated control; read-out: Mean change (Δ mean reduction) of the number of smooth vascular muscle cells. The method, then: Smooth muscle cells, obtained after isolation from the aorta of balloon-catheterized rats, were cultivated in DMEM under addition of 10% of fetal calf serum and subject to passages.
For the assay 10,000 cells of one passage were inoculated per dish and incubated for 3 days with vehicle (namely DMSO, 0.5% final concentration) or test compound (5×10^-5 M) 4 h after innoculation. After 3 days a cell count was made. Six preparations-Were tested per test compound.
Table 5: Mean change (Δ mean reduction) in percent of the number of smooth vascular muscle cells after incubation with test substance for 3 days as compared to vehicle-treated control preparation.

In a further series the test system is triglycerides. Description: Lipid-lowering properties in fasting normolipidemic rats (serum triglycerides, GPO-PAP method). The class given is in vivo. To be noted: rat, single oral dose 0.2 mmol/kg, read-out: Mean change (Δ mean reduction) of triglyceride concentrations versus vehicle-treated control. The method, then: The lipid-lowering properties of the compounds according to the invention were investigated in a rat model. In this model a single dose (0.2 mmol/kg) of the test substance was administered to fasting normolipidemic rats by the oral route. 240 and 360 minutes after application, blood samples were taken, the concentrations of triglycerides being assessed by a standard method (namely GPO-PAP method, E. Merck-system, Darrdstadt, Germany) (n=5 rats per measurement time).
In Table 2 the mean changes are given in percent as compared to a solvent (cremophor, 30% in aqua dest) control.
Table 2: Mean changes (Δ mean reduction) in percent of triglyceride concentrations 240 and 360 minutes after a single application versus vehicle-treated control.

Series [3] has as its system Human endothelial cells of the umbilical vein. Put plainly: Endothelial protection against cytotoxic effects of oxidized LDL. To be noted: 2×10^-5 M, 24 h at 37° C., LDL 200 μg/ml; for Mean change (Δ mean reduction) of the concentration of TBA-reactive material after incubation of endothelial cells with LDL: versus control preparation 1 (vehicle + LDL), 20 µM; for viability at 20 µM: Homo sapiens, Endothelial cell, control preparation 2 without LDL = 100%, read-out: Mean number of endothelial cells after incubation with LDL as compared to control preparation 2. The class given is cell-based. On the procedure:
Human endothelial cells of the umbilical vein were isolated after collagenase vascular treatment and cultured.
For the assay the cells were dispersed in a density of 50,000 per dish and cultivated for 4 days with Ham's F 12/DMEM medium (ratio: 4:1) under addition of 15% fetal calf serum, 5% horse serum and 10 ng/ml ECGF heparin.
After 4 days the cells were washed with serum-free medium and used in the cytotox assay.
For this assay the cells were incubated f or 24 h at 37° C. in 1 ml of Ham's F 10 medium (+ECGF heparin) with LDL (200 μg/ml). During this time period either the vehicle, namely, ethanol, 0.5% final concentration (control preparation 1) or the test substance (2×10^-5 M) was present. In parallel, one preparation was incubated without LDL and without any other substance and with vehicle (0.5% ethanol) to assess the maximum proliferation rate (control preparation 2).
After 24 h the resultant TBA-reactive material was determined in the medium or the number of cells counted.
as §2
Table 4a represents the mean changes in percent versus appropriate control preparation 1.
Table 4a: Mean change (Δ mean reduction) in percent of the concentration of TBA-reactive material after incubation of endothelial cells for 24 h with LDL versus appropriate control preparation 1.
Table 4b: Mean number of cells in percent after 24-h incubation with LDL as compared to appropriate control preparation 2.

Another series concerns human LDL. Put plainly: LDL assay of antioxidant properties (TBA-reactive material). The class given is biochemical. The settings on record: 5×10^-5 M, 24 h, 10 μM Cu^2+, versus vehicle-treated control; 50 µM. On the procedure:
as §1
LDL (d=1.019-1.063) was obtained from human plasma by ultracentifugation under addition of EDTA.
100 μg of LDL was incubated with 0. 5 ml of HAM F 10 medium for 24 h at […] with vehicle (namely ethanol, 0. 5% final concentration) or test substance (concentration: 5×10^-5 M) in the presence of 10 μM of Cu^2+.
The total TBA-reactive material was determined in accordance with the trilinolenine assay.
as §2, §3, §4

Series [4] is described as follows: Kinetics of nicotinic acid released from the compounds in fasting normolipidemic rats (GC/MS in serum). The settings on record: general statement. The class given is in vivo, rat. On the procedure: The kinetics of nicotinic acid released from the compounds under investigation was studied in the rat. A single dose (0.2 mmol/kg) of the test substance was administered to fasting normolipidemic rats by gavage. 240 and 360 minutes thereafter, blood samples were taken and the concentration of nicotinic acid in serum was determined using a GC/MS method (n=5 rats per time). Table 1: Concentration of nicotinic acid (mg/1) in pooled serum samples after a single application of drug.

Data on 10 compounds can be found in patent US5254549A, “New BHT ether compounds and their use as hypolipidemic and antiatherosclerotic drugs” (Merz & Co. GmbH & Co., priority 1991, dated 1993).

Read-outs that look alike come from different tables or passages of the source.

`CC(C)(C)c1cc(CCCOCc2cccnc2)cc(C(C)(C)C)c1O` [3/124, 2,6-Di-tert-butyl-4-(5-(3-pyridyl)-4-oxapentyl]phenol]: the “Mean change (Δ mean reduction) of the concentration of TBA-reactive material, trilinolenine assay” value in series [1] came out at 76%. Besides, in series [2], the inhibition at 50 µM is 71%. Further, the inhibition in vivo at 200 µmol/kg with triglycerides (4 h, Time 240') stood at 73%. Besides, in the series on triglycerides (6 h, Time 360'), the inhibition in vivo at 200 µmol/kg is 76%. Also, in series [3], the “Mean change (Δ mean reduction) of the concentration of TBA-reactive material after incubation of endothelial cells with LDL” value (shortened to “Mean change (Δ mean reduction) … with LDL”) worked out at 57% and the viability at 20 µM came out at 118%. For the same compound, the “Mean change (Δ mean reduction) of the concentration of TBA-reactive material, LDL assay” value (“Mean change (Δ mean reduction) … LDL assay” for short) in the series with human LDL amounted to 90%.
As for `CC(C)(C)c1cc(COCCCCCCc2cccnc2)cc(C(C)(C)C)c1O` [3/161, 2,6-Di-tert-butyl-4-[8-(3-pyridyl)-2-oxaoctyl]phenol], in series [1], the “Mean change (Δ mean reduction) of the concentration of TBA-reactive material, trilinolenine assay” value was found to be 58%. Further, the inhibition at 50 µM in series [2] was found to be 98%. Besides, the inhibition in vivo at 200 µmol/kg in the series with triglycerides (4 h, Time 240') amounted to 60%; in the series with triglycerides (6 h, Time 360') it was 67%. For the same compound, in series [3], the “Mean change (Δ mean reduction) … with LDL” value is on record as 64%. In series [3], the viability at 20 µM was determined as 107%. Also, in the series on human LDL, the “Mean change (Δ mean reduction) … LDL assay” value is 79%.
Take `CC(C)(C)c1cc(COCCCC/C=C\c2cccnc2)cc(C(C)(C)C)c1O` [3/181, (Z)-2,6-Di-tert-butyl-4-(8-(3-pyridyl)-2-oxaoct-7-enyl]-phenol]: in series [1], the “Mean change (Δ mean reduction) of the concentration of TBA-reactive material, trilinolenine assay” value is on record as 76%. For the same compound, in series [2], the inhibition at 50 µM came out at 81%. The inhibition in vivo at 200 µmol/kg with triglycerides (4 h, Time 240') was 57%. Further, the inhibition in vivo at 200 µmol/kg in the series on triglycerides (6 h, Time 360') turned out to be 57%. Moreover, in series [3], the “Mean change (Δ mean reduction) … with LDL” value is recorded as 65% and the viability at 20 µM was 122%. In addition, in the series with human LDL, the “Mean change (Δ mean reduction) … LDL assay” value is listed as 76%.
Consider `CC(C)(C)c1cc(COCc2cccnc2)cc(C(C)(C)C)c1O` [3/156], for which, in series [4], the “levels of nicotinic acid (in words)” value is “excessively high levels of nicotinic acid”.
As to `CC(C)(C)c1cc(COCCCCCCCc2cccnc2)cc(C(C)(C)C)c1O` [3/188, 2,6-Di-tert-butyl-4-[9-(3-pyridyl)-2-oxanonyl]phenol], the “Mean change (Δ mean reduction) of the concentration of TBA-reactive material, trilinolenine assay” value in series [1] is reported as 66%. Further, the inhibition at 50 µM in series [2] came to 63%. In addition, the inhibition in vivo at 200 µmol/kg in the series with triglycerides (4 h, Time 240') was 53%. In the series on triglycerides (6 h, Time 360'), the inhibition in vivo at 200 µmol/kg worked out at 40%. Further, in series [3], the “Mean change (Δ mean reduction) … with LDL” value is given as 54% and the viability at 20 µM was determined as 79%. In the series with human LDL, the “Mean change (Δ mean reduction) … LDL assay” value is on record as 71%.
With `CC(C)(C)c1cc(CCCOCCCc2cccnc2)cc(C(C)(C)C)c1O` [3/190, 2,6-Di-tert-butyl-4-[7-(3-pyridyl)-4-oxaheptyl]phenol], in series [1], the “Mean change (Δ mean reduction) of the concentration of TBA-reactive material, trilinolenine assay” value was 72%. Moreover, in series [2], the inhibition at 50 µM stood at 91%. Moreover, the inhibition in vivo at 200 µmol/kg in the series with triglycerides (4 h, Time 240') was determined as 56%. In addition, in the series with triglycerides (6 h, Time 360'), the inhibition in vivo at 200 µmol/kg was found to be 28%. For the same compound, in series [3], the “Mean change (Δ mean reduction) … with LDL” value came out at 36% and the viability at 20 µM amounted to 65%. In addition, the “Mean change (Δ mean reduction) … LDL assay” value with human LDL was found to be 89%.
Regarding `CC(C)(C)c1cc(COCCCCC#Cc2cccnc2)cc(C(C)(C)C)c1O` [3/179, 2,6-Di-tert-butyl-4-[8-(3-pyridyl)-2-oxaoct-7-ynyl]phenol], in series [1], the “Mean change (Δ mean reduction) of the concentration of TBA-reactive material, trilinolenine assay” value was 79%. For the same compound, in series [2], the inhibition at 50 µM worked out at 55%. The inhibition in vivo at 200 µmol/kg with triglycerides (4 h, Time 240') worked out at 57%. In addition, the inhibition in vivo at 200 µmol/kg with triglycerides (6 h, Time 360') is 70%. For the same compound, in series [3], the “Mean change (Δ mean reduction) … with LDL” value is 43% and the viability at 20 µM was found to be 76%. The “Mean change (Δ mean reduction) … LDL assay” value in the series with human LDL was 73%.
On to `CC(C)(C)c1cc(CCCOCCCCCc2cccnc2)cc(C(C)(C)C)c1O` [3/191, 2,6-Di-tert-butyl-4-[9-(3-pyridyl)-4-oxanonyl)phenol], for which the “Mean change (Δ mean reduction) of the concentration of TBA-reactive material, trilinolenine assay” value in series [1] came to 76%. In addition, the inhibition at 50 µM in series [2] amounted to 79%. The inhibition in vivo at 200 µmol/kg in the series on triglycerides (4 h, Time 240') came out at 37%. In addition, the inhibition in vivo at 200 µmol/kg in the series with triglycerides (6 h, Time 360') is 32%. In addition, in series [3], the “Mean change (Δ mean reduction) … with LDL” value came to 33% and the viability at 20 µM was 63%. Further, the “Mean change (Δ mean reduction) … LDL assay” value in the series on human LDL was 86%.
`CC(C)(C)c1cc(COCCCCCc2cccnc2)cc(C(C)(C)C)c1O` [3/192, 2,6-Di-tert-butyl-4-[7-(3-pyridyl)-2-oxaheptyl]phenol]: the “Mean change (Δ mean reduction) of the concentration of TBA-reactive material, trilinolenine assay” value in series [1] turned out to be 74%. The inhibition at 50 µM in series [2] worked out at 95%. For the same compound, the inhibition in vivo at 200 µmol/kg in the series with triglycerides (4 h, Time 240') is 44%. In addition, the inhibition in vivo at 200 µmol/kg in the series on triglycerides (6 h, Time 360') amounted to 53%. In series [3], the “Mean change (Δ mean reduction) … with LDL” value was determined as 47% and the viability at 20 µM worked out at 79%. Besides, the “Mean change (Δ mean reduction) … LDL assay” value in the series with human LDL was found to be 86%.
In the case of `CC(C)(C)c1cc(COCCCCc2cccnc2)cc(C(C)(C)C)c1O` [3/187, 2,6-Di-tert-butyl-4-[6-(3-pyridyl)-2-oxahexyl]phenol], in series [1], the “Mean change (Δ mean reduction) of the concentration of TBA-reactive material, trilinolenine assay” value was 71%. In addition, the inhibition at 50 µM in series [2] worked out at 93%. Also, the inhibition in vivo at 200 µmol/kg in the series with triglycerides (4 h, Time 240') came to 65%. In addition, in the series with triglycerides (6 h, Time 360'), the inhibition in vivo at 200 µmol/kg worked out at 55%. Also, in series [3], the “Mean change (Δ mean reduction) … with LDL” value turned out to be 53% and the viability at 20 µM was found to be 80%. In addition, the “Mean change (Δ mean reduction) … LDL assay” value in the series with human LDL is 82%.
